“And” between values parts separate entries of the source, which are not always exact repeats. Equal values may be shown once. Read-outs that look alike come from different tables or passages of the source.
How the values were obtained:
BRD4(1) [1] = molecular target: T1, BRD4(1) (Homo sapiens, UniProt O60885); assay: Differential scanning fluorimetry (DSF) with BRD4(1); format: binding; design: Bromodomain 1 (BRD4(1)) and Bromodomain 2 (BRD4(2))
Protocol: The inhibitory activity of compound Z118332870 (2870) against BRD4(1) was assessed by DSF using a StepOnePlus Real-Time PCR system (Applied Biosystems). Purified BRD4(1) (4 μM final concentration; 10 mM HEPES (pH 7.5), 100 mM NaCl, and 1 mM DTT) was assayed, in triplicates, in a 96-well plate. Compound was added to a final concentration of 100 μM and 2% DMSO. Protein Thermal Shift Dye (1:8000; Applied Biosystems) was used as the fluorescent probe and fluorescence was measured using the ROX Reporter channel (620 nm). Protein stability was investigated by programing the thermocycler to increase the temperature from 25 °C to 99 °C using 0.2 °C increments and 10 second incubations per increment. The inflection point of the transition curve/melting temperature (Tm) was calculated using the Boltzmann equation within the Protein Thermal Shift Software (v.1.1) (Applied Biosystems). The ΔTm was calculated by using DMSO control wells as a reference.

ERBB2 = ERBB2 (Homo sapiens, UniProt P04626); assay: Kinase activity enzyme profiling, ERBB2; format: biochemical
ERBB4 = ERBB4 (Homo sapiens, UniProt Q15303); assay: Kinase activity enzyme profiling, ERBB4; format: biochemical
BRD4(1) [2] = molecular target: T1, BRD4(1); assay: BRD4(1) biochemical alphascreen assay (disruption of BRD4(1) binding to acetylated biotin-histone 4 peptide); design: BRD4-BD1 (49–170, BPS Bio #31042) was stored at −80 °C; purchased BPS Bio 31042; conditions: for IC50: alpha screen, average, 9 concentrations in triplicate (n = 3), read-out: IC50 against BRD4(1)
From the text: After searching multiple commercial providers for the top 108 compounds, Enamine LLC (http://www.enamine.net/) provided 24 compounds comprising 5 chemical scaffolds including substituted 2-pyrrolidinones, quinazolin-4-amines, thienopyrimidin-4-amines, and imidazolidinones (Supplementary Table 2). […] As illustrated, several compounds have confirmed activity against BRD4(1) and one compound, Z118332870 (2870), is active against BRD4 and EGFR kinase. Compounds that were not confirmed BRD4(1) actives were not tested in the EGFR assay because we were primarily interested in novel dual BRD4 and EGFR inhibitors. To evaluate small molecule BRD4 bromodomain binding, we utilized a biochemical alphascreen assay that measured disruption of BRD4(1) binding to pre-acetylated biotin-histone 4 peptide by proximity detection of the conjugated donor and acceptor beads via transient singlet oxygen. […] To validate results, a counter-screen assay (see Methods for details) was performed to ensure that compounds were not interacting with assay components other than recombinant BRD4(1) (Supplementary Figure 3).
The BRD4(1) alpha screen assay was performed with a pre-acetylated Biotin-Histone 4 Peptide [H4K5/8/12/16(Ac)] 1 – 21 (AnaSpec #64989-025, 0.25 mg). A 200 μM stock was made and stored at −80 °C. BRD4-BD1 (49–170, BPS Bio #31042) was stored at −80 °C at a concentration of 50 μM. All compounds used in assays were kept in a 10 mM stock at −80 °C, with I-BET151 being used as a control. The assay buffer contained 50 mM HEPES, 100 mM NaCl, and 0.1% BSA at a pH of 7.4, and was stored at 4 °C. 10% CHAPS (Sigma C3023) was added to the assay buffer before each experiment and was stored at room temperature.
Before use, assay buffer was equilibrated to room temperature and supplemented with 0.05% CHAPS. 3X His-BRD4-BD1 was diluted in assay buffer to 600 nM with a final concentration of 200 nM in a 12 μl reaction volume. 4 μl per well of 3X His-BRD4-BD1 was added to an OptiPlate-384 (Perkin Elmer #6007290) covered with Top Seal-A Film (Perkin Elmer #6005250) and pulsed at 900 × g. 3X BRD Inhibitors or DMSO vehicle was prepared in Assay Buffer starting at 300 μM and diluting 3X to 46 nM. 4 μl of buffer (positive control), 3X DMSO Vehicle, or 3X BRD Inhibitor (I-BET151 as control) were added to each well, sealed with Top Seal-A film and pulsed at 900 × g. The plate was then incubated at room temperature for 30 minutes. 3X Biotin-H4K4Ac was prepared by diluting stock in Assay Buffer to 600 nM, with a final concentration of 200 nM in a 12 μl reaction volume. 4 μl of Biotin-H4K4Ac was added per well, sealed and pulsed at 900 × g. The plate was then incubated at room temperature for another 30 minutes. AlphaLISA Nickel Chelate Acceptor Beads (Perkin Elmer #1547780, 5 mg/ml, 4 °C) and AlphaScreen Streptavidin Donor Beads (Perkin Elmer #6760002, 5 mg/ml, 4 °C) were prepared at 2.5X by diluting in Assay Buffer to 25 μg/ml with a final concentration of each bead equaling 10 μg/ml in a 20 μl reaction volume. 8 μl per well of Donor and Acceptor beads were added in the dark to each well, sealed, wrapped with foil to protect from light, and pulsed at 900 × g. The plate was then incubated at room temperature for 60 minutes and read on an EnVision instrument using Alpha Mode (680 excitiation/615 emission/read signal). Dose response curves were obtained and interpreted using GraphPad Prism software for curve fitting to obtain IC50 values. […]

EGFR (ERBB1) = EGFR (ERBB1) (Homo sapiens, UniProt P00533); assay: EGFR kinase activity enzyme assay (radioisotope filter binding, hotspot); format: biochemical
Sequence of EGFR (ERBB1) (P00533 25-1210): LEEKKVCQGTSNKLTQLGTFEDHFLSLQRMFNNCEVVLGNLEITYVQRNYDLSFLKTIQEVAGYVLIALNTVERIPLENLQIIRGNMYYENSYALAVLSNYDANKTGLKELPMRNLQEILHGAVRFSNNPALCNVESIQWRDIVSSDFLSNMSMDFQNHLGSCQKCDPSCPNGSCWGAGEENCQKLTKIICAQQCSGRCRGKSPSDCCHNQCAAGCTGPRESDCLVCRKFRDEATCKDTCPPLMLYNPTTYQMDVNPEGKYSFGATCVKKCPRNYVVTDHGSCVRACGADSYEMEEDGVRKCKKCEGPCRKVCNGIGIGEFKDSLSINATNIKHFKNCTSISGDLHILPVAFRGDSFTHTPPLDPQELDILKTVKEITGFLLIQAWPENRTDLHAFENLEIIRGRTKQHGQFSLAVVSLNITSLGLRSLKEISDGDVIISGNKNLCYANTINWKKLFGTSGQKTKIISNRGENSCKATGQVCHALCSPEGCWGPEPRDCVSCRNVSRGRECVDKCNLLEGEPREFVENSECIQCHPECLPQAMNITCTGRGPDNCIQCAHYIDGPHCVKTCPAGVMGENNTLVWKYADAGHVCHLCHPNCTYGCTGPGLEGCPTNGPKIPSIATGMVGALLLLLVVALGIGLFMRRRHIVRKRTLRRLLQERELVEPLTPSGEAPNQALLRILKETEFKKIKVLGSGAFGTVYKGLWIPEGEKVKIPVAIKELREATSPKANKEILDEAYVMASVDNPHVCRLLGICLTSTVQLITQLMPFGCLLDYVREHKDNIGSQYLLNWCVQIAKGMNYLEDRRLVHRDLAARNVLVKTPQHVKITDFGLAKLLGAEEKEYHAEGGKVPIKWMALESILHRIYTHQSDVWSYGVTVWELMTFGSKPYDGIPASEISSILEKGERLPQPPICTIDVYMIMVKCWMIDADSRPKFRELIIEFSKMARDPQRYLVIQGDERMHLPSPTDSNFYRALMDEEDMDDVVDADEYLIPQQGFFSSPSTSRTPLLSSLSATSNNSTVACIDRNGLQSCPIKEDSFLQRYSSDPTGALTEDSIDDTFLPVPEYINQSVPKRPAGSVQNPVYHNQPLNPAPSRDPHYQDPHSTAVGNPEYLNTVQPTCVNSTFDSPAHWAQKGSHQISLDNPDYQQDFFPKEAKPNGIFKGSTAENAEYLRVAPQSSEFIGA
Protocol: A radioisotope filter binding method was used in the EGFR kinase hotspot assay, performed by the Reaction Biology Corporation, LLC. The base reaction buffer was composed of 20 mM HEPES (pH 7.5); 10 mM MgCl2, 1 mM EGTA, 0.02% Brij35, 0.02 mg/mL BSA, 0.1 mM Na3VO4, 2 mM DTT, and 1% DMSO. The substrate was freshly prepared using the base reaction buffer. Kinase was added into the substrate solution at a concentration of 10 μM and gently mixed. Compounds were then added into the kinase reaction mixture. At this point, the ^33P-ATP was added into the reaction mixture to initiate the reaction. The reaction was incubated for 120 minutes at room temperature. After completion, reactions were spotted onto P81 ion exchange paper (Whatman #3698-915). Filters were then washed extensively in 0.75% Phosphoric acid and a scintillation counter was used to quantify the amount of radioactivity on the filter.

Sequence of ERBB4 (Q15303 26-1308): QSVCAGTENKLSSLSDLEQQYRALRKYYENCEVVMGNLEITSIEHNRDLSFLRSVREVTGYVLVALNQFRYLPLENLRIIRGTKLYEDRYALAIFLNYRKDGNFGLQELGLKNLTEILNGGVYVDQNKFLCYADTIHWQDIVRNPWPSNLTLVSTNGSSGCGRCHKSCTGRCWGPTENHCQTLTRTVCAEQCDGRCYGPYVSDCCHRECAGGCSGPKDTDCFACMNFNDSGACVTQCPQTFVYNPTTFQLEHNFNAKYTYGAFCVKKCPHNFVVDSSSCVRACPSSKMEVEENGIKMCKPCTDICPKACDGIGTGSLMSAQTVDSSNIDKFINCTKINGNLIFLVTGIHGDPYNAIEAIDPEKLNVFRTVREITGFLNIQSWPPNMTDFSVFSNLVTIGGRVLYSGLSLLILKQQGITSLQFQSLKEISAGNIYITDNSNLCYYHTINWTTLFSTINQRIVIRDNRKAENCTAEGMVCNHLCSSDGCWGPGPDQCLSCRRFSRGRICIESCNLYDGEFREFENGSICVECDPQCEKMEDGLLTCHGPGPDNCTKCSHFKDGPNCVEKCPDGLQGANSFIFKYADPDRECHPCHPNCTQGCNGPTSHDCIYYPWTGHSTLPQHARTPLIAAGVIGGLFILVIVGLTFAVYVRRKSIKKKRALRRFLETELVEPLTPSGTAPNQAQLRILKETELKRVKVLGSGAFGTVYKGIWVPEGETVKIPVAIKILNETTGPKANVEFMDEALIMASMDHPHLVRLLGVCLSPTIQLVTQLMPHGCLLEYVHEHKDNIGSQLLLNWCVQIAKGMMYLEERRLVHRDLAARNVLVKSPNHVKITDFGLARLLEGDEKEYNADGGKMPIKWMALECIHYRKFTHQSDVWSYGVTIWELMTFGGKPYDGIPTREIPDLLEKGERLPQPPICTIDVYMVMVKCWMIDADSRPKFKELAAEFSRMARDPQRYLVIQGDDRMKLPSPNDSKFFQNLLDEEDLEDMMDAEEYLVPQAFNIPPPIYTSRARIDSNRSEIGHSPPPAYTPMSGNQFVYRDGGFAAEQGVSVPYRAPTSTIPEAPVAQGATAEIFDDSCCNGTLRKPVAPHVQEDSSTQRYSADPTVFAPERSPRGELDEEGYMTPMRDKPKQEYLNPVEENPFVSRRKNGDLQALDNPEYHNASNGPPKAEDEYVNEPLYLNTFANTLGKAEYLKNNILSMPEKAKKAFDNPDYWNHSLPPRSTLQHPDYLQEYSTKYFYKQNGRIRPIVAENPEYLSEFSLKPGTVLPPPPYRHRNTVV
Sequence of ERBB2 (P04626 23-1255): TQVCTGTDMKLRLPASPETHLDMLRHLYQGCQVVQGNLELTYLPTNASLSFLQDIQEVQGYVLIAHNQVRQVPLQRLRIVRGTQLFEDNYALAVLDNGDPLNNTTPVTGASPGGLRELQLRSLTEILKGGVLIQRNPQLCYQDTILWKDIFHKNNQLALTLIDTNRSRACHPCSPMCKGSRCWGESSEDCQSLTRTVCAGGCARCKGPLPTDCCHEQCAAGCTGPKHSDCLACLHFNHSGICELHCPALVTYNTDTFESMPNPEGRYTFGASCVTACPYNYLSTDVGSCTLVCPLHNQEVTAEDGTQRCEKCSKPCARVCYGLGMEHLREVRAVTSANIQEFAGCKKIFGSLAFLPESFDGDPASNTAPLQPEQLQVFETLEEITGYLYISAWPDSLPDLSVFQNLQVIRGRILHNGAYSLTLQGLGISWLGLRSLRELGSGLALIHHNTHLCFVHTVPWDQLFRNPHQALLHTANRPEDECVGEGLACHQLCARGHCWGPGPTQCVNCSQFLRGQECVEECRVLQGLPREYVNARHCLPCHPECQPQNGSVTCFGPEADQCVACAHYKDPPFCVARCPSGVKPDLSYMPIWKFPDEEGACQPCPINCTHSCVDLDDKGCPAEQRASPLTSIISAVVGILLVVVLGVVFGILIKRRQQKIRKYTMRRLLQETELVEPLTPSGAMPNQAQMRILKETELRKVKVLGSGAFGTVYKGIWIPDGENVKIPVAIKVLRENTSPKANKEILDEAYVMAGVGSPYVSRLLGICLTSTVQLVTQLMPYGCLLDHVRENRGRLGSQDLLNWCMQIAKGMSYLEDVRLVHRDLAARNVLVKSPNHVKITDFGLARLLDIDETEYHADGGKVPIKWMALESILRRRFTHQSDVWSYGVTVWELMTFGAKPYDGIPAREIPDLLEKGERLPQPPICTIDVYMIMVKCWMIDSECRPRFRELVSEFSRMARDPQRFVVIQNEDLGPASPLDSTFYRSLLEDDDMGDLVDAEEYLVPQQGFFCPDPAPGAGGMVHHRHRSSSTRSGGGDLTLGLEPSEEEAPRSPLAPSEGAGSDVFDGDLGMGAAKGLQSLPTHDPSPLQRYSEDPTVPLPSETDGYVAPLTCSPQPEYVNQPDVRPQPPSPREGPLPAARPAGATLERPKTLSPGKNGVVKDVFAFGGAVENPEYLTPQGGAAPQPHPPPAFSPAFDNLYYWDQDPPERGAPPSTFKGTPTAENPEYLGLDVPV

activity in BRD4(1) alphascreen assay (in words) (BRD4(1) [2])	Compound	ΔTm at 100 µM (BRD4(1) [1]; DSF, compound 100 μM, BRD4(1) 4 μM, relative to DMSO)	IC50 (BRD4(1) [1]; corresponds to ΔTm based on the standard curve, read-out: predicted IC50 from DSF standard curve)	selectivity for EGFR over ERBB2 (ERBB2; EGFR vs ERBB2 IC50)	IC50 (ERBB2; kinase activity enzyme profiling, read-out: IC50 against ERBB2)	selectivity for EGFR over ERBB4 (ERBB4; EGFR vs ERBB4 IC50)	IC50 (ERBB4; kinase activity enzyme profiling, read-out: IC50 against ERBB4)	IC50 (BRD4(1) [2])	IC50 (EGFR (ERBB1); kinase enzyme activity assay, read-out: IC50 against EGFR)	IC50 (EGFR (ERBB1); radioisotope filter binding assay, substrate concentration 10 μM, n = 3, read-out: IC50 against EGFR kinase)
Confirmed active	COc1ccc(Br)cc1S(=O)(=O)Nc1cccc(N2CCCC2=O)c1 [compound 8302]									
Confirmed active	c1nc(NCCCN2CCOCC2)c2c3c(sc2n1)CCC3 [compound 0012]							17 µM		

Compound	activity in BRD4(1) alphascreen assay (in words) (BRD4(1) [2])	ΔTm at 100 µM (BRD4(1) [1]; DSF, compound 100 μM, BRD4(1) 4 μM, relative to DMSO)	IC50 (BRD4(1) [1]; corresponds to ΔTm based on the standard curve, read-out: predicted IC50 from DSF standard curve)	selectivity for EGFR over ERBB2 (ERBB2; EGFR vs ERBB2 IC50)	IC50 (ERBB2; kinase activity enzyme profiling, read-out: IC50 against ERBB2)	selectivity for EGFR over ERBB4 (ERBB4; EGFR vs ERBB4 IC50)	IC50 (ERBB4; kinase activity enzyme profiling, read-out: IC50 against ERBB4)	IC50 (BRD4(1) [2])	IC50 (EGFR (ERBB1); kinase enzyme activity assay, read-out: IC50 against EGFR)	IC50 (EGFR (ERBB1); radioisotope filter binding assay, substrate concentration 10 μM, n = 3, read-out: IC50 against EGFR kinase)
COc1cc2ncnc(NCCOc3ccccc3F)c2cc1OC [compound 2870]	Confirmed active	1.15 °C	9.1 µM	about 200 fold	8.73 µM	500 fold	24.2 µM	9 µM and 9.02 µM	0.0442 µM	0.044 µM

— publication PMC4657038, “Large-Scale Computational Screening Identifies First in Class Multitarget Inhibitor of EGFR Kinase and BRD4” (Scientific Reports, 2015)
